The structures appear in SMILES notation.

The source of these data is patent US20080254993A1, “Use of abscisic acid analogs to enhance growth control” (priority 2007, published 2008).

Holding throughout (type): in vivo, Penncross creeping bentgrass
Assay [1] concerns creeping bentgrass. Briefly: Golf course green field study on creeping bentgrass with PBI-429: turfgrass height, soil moisture, turf quality (Example 2). The following applies: for Soil moisture (in words) / Turfgrass height (in words): trinexapac-ethyl 25 ppm, PBI-429 50 ppm, alone or combined; for Turf quality: visual 0-9 scale, 9 best. The protocol:
(§1) Field studies were conducted at the nursery green or the practice green at Countryside golf course (Mundelein, Ill.). Both greens were sand based and growing Penncross creeping bentgrass. Grass was managed with typical Illinois golf course management practices.
(§2) Chemical solutions were prepared with distilled water. Tween 20 (0.05% v/v) was used as the surfactant when necessary. Trinexapac-ethyl (commercial product Primo Maxx, 11.3% active ingredient) was purchased from Syngenta Crop Protection Inc. (Greensboro, N.C.). ABA analogs, 8′ acetylene-ABA, acid (PBI-524), 8′ acetylene-ABA, ester (PBI-429), 8′ cyclopropane ester (PBI-696), or Tetralone, first carbon tail acetylene, ester (PBI-702), were obtained from Plant Biotechnology Institute, National Research Council of Canada (Saskatoon, Saskatchewan, Canada).
(§3) Chemical solutions were foliar applied to the turfgrass canopy at the rate of 4-gallons/1000 square foot (or 0.163 L/m^−2) immediately after finishing the preparation of solutions. After treatment, turfgrasses were arranged in a randomized complete block experimental design. Turfgrass quality, turfgrass height or clip fresh weight was measured on assigned dates. Turfgrass quality was visually rated on a 0-9 scale based on the color, uniformity, and density of the grass with 0 as the worst and 9 as the best. Turfgrass height was measured as the distance between canopy surface and soil. Clippings were collected form each plot; all plots were cut to a uniform height.
(§4) All experiments were randomized complete block experimental design. Data were analyzed by analysis of variance. Duncan's new multiple range tests at α=0.05 were used for mean separations.
Trinexapac-ethyl (25 ppm) or PBI-429 (50 ppm) were one time foliar applied alone or in combination to creeping bentgrass in the golf course green to investigate their effect on turfgrass quality, growth inhibition and soil moisture.

Assay [2] relates to creeping bentgrass. Briefly: Golf course green field study on creeping bentgrass with PBI-702: turfgrass height, soil moisture, turf quality (Example 3). As to conditions: for Soil moisture / Turfgrass height / Turf quality: 25 ppm trinexapac-ethyl alone; for Turf quality: visual 0-9 scale, 9 best. The protocol:
as §1, §2, §3, §4
Trinexapac-ethyl (25 ppm) or PBI-702 (50 ppm) were one time foliar applied alone or in combination to creeping bentgrass in the golf course green to investigate their effect on turfgrass quality, growth inhibition and soil moisture.

The subject of assay [3] is creeping bentgrass. Briefly: Golf course green field study on creeping bentgrass with PBI-696: growth rate, turfgrass quality (Example 4). The following applies: 4 days after treatment, trinexapac-ethyl (25 ppm) alone. The protocol:
as §1
Chemical solutions were prepared with distilled water. Tween 20 (0.05% v/v) was used as the surfactant when necessary. Trinexapac-ethyl (commercial product Primo Maxx, 11.3% active ingredient) was purchased from Syngenta Crop Protection Inc. (Greensboro, N.C.). […]
Chemical solutions were foliar applied to the turfgrass canopy at the rate of 4-gallons/1000 square foot (or 0.163 L/m^−2) immediately after finishing the preparation of solutions. […] Turfgrass quality, turfgrass height or clip fresh weight was measured on assigned dates. […] Turfgrass height was measured as the distance between canopy surface and soil. […]
All experiments were randomized complete block experimental design. Data were analyzed by analysis of variance. […]
Trinexapac-ethyl (25 ppm) and PBI-696 (5 or 50 ppm) were one time foliar applied in combination to creeping bentgrass in the golf course green. Turfgrass quality and growth rate were measured 4 days after treatment.

[4] abbreviates: 4 days after treatment, 50 ppm PBI-429 alone.
[5] abbreviates: 7 days after treatment, 50 ppm PBI-429 alone.
[6] abbreviates: 38 days after treatment, 50 ppm PBI-429 alone.
[7] abbreviates: 4 days after treatment, 25 ppm trinexapac-ethyl alone.
Where [8] appears, read: 7 days after treatment, 25 ppm trinexapac-ethyl alone.
The mark [9] stands for this setting: 38 days after treatment, 25 ppm trinexapac-ethyl alone.

For the molecule `C#CC1(C)CC(=O)C=C(C)C1(O)/C=C/C(C)=C\C(=O)OC` (stereo not shown) [PBI-429, 8′ acetylene-ABA, ester], the Soil moisture in assay [1] (setting [4]) is 13.3%; in assay [1] (setting [5]) it was 13.1%; in assay [1] (setting [6]), 12.9%. Also, the Turfgrass height worked out at 6.7 mm in assay [1] (setting [4]), 6.3 mm in assay [1] (setting [5]) and 5.5 mm in assay [1] (setting [6]). The “Soil moisture (in words)” value in assay [1] (4 days after treatment) and in assay [1] (7 days after treatment) was “increase soil moisture” throughout. In addition, the “Turfgrass height (in words)” value in assay [1] (4 days after treatment) was “reduced turfgrass height more than the combination of trinexapac-ethyl and PBI-429”; in assay [1] (7 days after treatment), “reduced turfgrass height similarly”. Further, the results for the Turf quality in assay [1] (setting [5]) and in assay [1] (setting [6]) were 7.1 and 8.0, respectively.

Turning to `CCOC(=O)C1CC(=O)C(=C(O)C2CC2)C(=O)C1` (stereo not shown) [trinexapac-ethyl, reference compound], the Soil moisture in assay [2] (4 days after treatment) is 11.2%; in assay [2] (7 days after treatment) it was 12.7%; in assay [2] (38 days after treatment), 12.4%; in assay [1] (setting [7]), 11.2%; in assay [1] (setting [8]), 12.7%; in assay [1] (setting [9]), 12.4%. The Turfgrass height in assay [2] (4 days after treatment) is given as 7.3 mm; in assay [2] (7 days after treatment) it was 6.5 mm; in assay [2] (38 days after treatment) it was 6.0 mm; in assay [1] (setting [7]), 7.3 mm; in assay [1] (setting [8]), 6.5 mm; in assay [1] (setting [9]), 6.0 mm. For the same molecule, in assay [2] (4 days after treatment, trinexapac-ethyl 25 ppm, PBI-702 50 ppm, alone or combined), the “Reducing growth or maintaining soil moisture (in words)” value is recorded as “ineffective at reducing growth or maintaining soil moisture”. Also, the Turf quality turned out to be 7.3 in assay [2] (7 days after treatment), 7.6 in assay [2] (38 days after treatment), 7.3 in assay [1] (setting [8]) and 7.6 in assay [1] (setting [9]). Further, the “Reducing growth (in words)” value in assay [2] (7 days after treatment, trinexapac-ethyl 25 ppm, PBI-702 50 ppm, alone or combined) is listed as “effective at reducing growth”. Besides, in assay [3], the Growth rate is reported as 549 mg dry weight m^−2 day^−1. In assay [3] (visual 0-9 scale, 9 best), the Turfgrass quality was 8.0. The “Turfgrass height (in words)” value in assay [1] (4 days after treatment) is “did not reduce creeping bentgrass height”; in assay [1] (7 days after treatment), “reduced turfgrass height similarly”; in assay [1] (38 days after treatment) it was “no longer effective”. Also, the results for the “Soil moisture (in words)” value in assay [1] (7 days after treatment) and in assay [1] (38 days after treatment) were “increase soil moisture” and “no longer effective”, respectively.
